# Like-named read-outs stand apart in the source and are kept apart here.
# How the values were obtained:
# Staph. aureus S13E = assay: MIC by standard agar-dilution test, Staph. aureus S13E; format: cell-based; conditions: Staphylococcus aureus
# Source text: (§1) The minimal inhibitory concentrations (MIC's) at which A201C, A201D, and A201E inhibit selected Gram positive bacteria, as determined by standard agar-dilution tests, are summarized in Table I: […]
# Streptococcus 9960 = assay: MIC by standard agar-dilution test, Streptococcus 9960; format: cell-based; conditions: Streptococcus 9960, agar dilution
# Source text: as §1
# H. influ. R252 = assay: MIC by standard agar-dilution test, H. influ. R252; format: cell-based
# Streptococcus X66 = assay: MIC by standard agar-dilution test, Streptococcus X66; format: cell-based
# Source text: as §1
# Staph. epi. Epi2 = assay: MIC by standard agar-dilution test, Staph. epi. Epi2; format: cell-based
# Source text: as §1
# Streptococcus Park = assay: MIC by standard agar-dilution test, Streptococcus Park; format: cell-based
# Source text: as §1
# Staph. epi. Epi1 = assay: MIC by standard agar-dilution test, Staph. epi. Epi1; format: cell-based
# Source text: as §1
# Staph. aureus X1.1 = assay: MIC by standard agar-dilution test, Staph. aureus X1.1; format: cell-based; conditions: Staphylococcus aureus; Staph. aureus X1.1, agar dilution
# Source text: as §1
# Streptococcus C203 = assay: MIC by standard agar-dilution test, Streptococcus C203; format: cell-based
# Source text: as §1
# Staph. aureus X400 = assay: MIC by standard agar-dilution test, Staph. aureus X400; format: cell-based; conditions: Staphylococcus aureus
# Source text: as §1
# Staph. aureus V41 = assay: MIC by standard agar-dilution test, Staph. aureus V41; format: cell-based; conditions: Staphylococcus aureus
# Source text: as §1
# H. influ. HOLT = assay: MIC by standard agar-dilution test, H. influ. HOLT; format: cell-based
# [1] = test system: pathogenic microorganisms, particularly Gram positive bacteria; assay: Inhibition of growth of pathogenic microorganisms (general statement); format: cell-based
# pKa = format: physicochemical; conditions: 66% dmf-h2o
# [2] = test system: Streptococcus pyogenes C203; assay: Therapy of mouse infection, Streptococcus pyogenes C203; format: in vivo, Mice; conditions: 1 and 5 hour post infection, 7 days
# Description: (§2) One hour and five hours later the mice are given a subcutaneous (S.C.) dose of the compound in 60% propylene glycol. The compound is administered at five different dosage levels (eight mice for each dosage level). The animals are observed for 7 days and the number of survivors is noted. For each organism, the ED50 value is calculated using the method of W. Wick, J. Bacteriol. 81, 233 (1961).
# (§3) ^b Compound administered subcutaneously (S.C.), 1 and 5 hour post
# [3] = test system: Diplococcus pneumoniae Park I; assay: Therapy of mouse infection, Diplococcus pneumoniae Park I; format: in vivo, Mice; conditions: 1 and 5 hour post infection, 7 days
# Description: as §2, §3
# [4] = test system: Staphylococcus aureus 3055; assay: Therapy of mouse infection, Staphylococcus aureus 3055; format: in vivo, Mice; conditions: 1 and 5 hour post infection, 7 days
# Description: as §2, §3
# [5] = test system: experimental bacterial infections; assay: In vivo therapeutic activity against experimental bacterial infections (general statement); conditions: mice
# Description: as §2
# [6] = H. influ. R252, agar dilution, read-out: MIC
structure (smiles),measurement,setting,value
"COC(COC1OC(C)C(OC)C(OC)C1O)=C1OC(Oc2ccc(C=C(C)C(=O)NC3C(CO)OC(n4cnc5c(N(C)C)ncnc54)C3O)cc2)C(O)C1O (stereo not drawn) [Factor A201A, reference compound]",MIC,Staph. aureus S13E,1 mg/L
same,MIC,Streptococcus 9960,64 mg/L
same,MIC,H. influ. R252; [6],4 mg/L
same,MIC,Streptococcus X66,8 mg/L
same,MIC,Staph. epi. Epi2,8 mg/L
same,MIC,Streptococcus Park,4 mg/L
same,MIC,Staph. epi. Epi1,16 mg/L
same,MIC,Staph. aureus X1.1,1 mg/L
same,MIC,Streptococcus C203,0.25 mg/L
same,MIC,Staph. aureus X400,1 mg/L
same,MIC,"Staph. aureus V41; Staph. aureus V41, agar dilution, read-out: MIC",16 mg/L
same,MIC,H. influ. HOLT,8 mg/L
COC(COC1OC(C)C(OC)C(OC)C1O)C1OC(Oc2ccc(C=C(C)C(=O)NC3C(CO)OC(n4cnc5c(N(C)C)ncnc54)C3O)cc2)C(O)C1O (stereo not drawn) [Factor E],MIC,Staph. aureus S13E,16 mg/L
same,MIC,Streptococcus 9960,> 128 mg/L
same,MIC,H. influ. R252; [6],32 mg/L
same,MIC,Streptococcus X66,64 mg/L
same,inhibition of growth of pathogenic microorganisms,[1],"inhibit the growth of certain pathogenic microorganisms, particularly Gram positive bacteria"
same,MIC,Staph. epi. Epi2,64 mg/L
same,MIC,Streptococcus Park,16 mg/L
same,MIC,Staph. epi. Epi1,64 mg/L
same,MIC,Staph. aureus X1.1,16 mg/L
same,MIC,Streptococcus C203,1 mg/L
same,MIC,Staph. aureus X400,16 mg/L
same,MIC,Staph. aureus V41; V41,128 mg/L
same,MIC,H. influ. HOLT,32 mg/L
COC(CO)=C1OC(Oc2ccc(C=C(C)C(=O)NC3C(CO)OC(n4cnc5c(N(C)C)ncnc54)C3O)cc2)C(O)C1O (stereo not drawn) [Factor D],MIC,Staph. aureus S13E,32 mg/L
same,MIC,Streptococcus 9960,> 128 mg/L
same,MIC,H. influ. R252; [6],64 mg/L
same,MIC,Streptococcus X66,> 128 mg/L
same,inhibition of growth of pathogenic microorganisms,[1],"inhibit the growth of certain pathogenic microorganisms, particularly Gram positive bacteria"
same,MIC,Staph. epi. Epi2,128 mg/L
same,MIC,Streptococcus Park,64 mg/L
same,MIC,Staph. epi. Epi1,128 mg/L
same,MIC,Staph. aureus X1.1,32 mg/L
same,MIC,Streptococcus C203,8 mg/L
same,MIC,Staph. aureus X400,64 mg/L
same,MIC,Staph. aureus V41; V41,> 128 mg/L
same,MIC,H. influ. HOLT,128 mg/L
COC(COC1OC(C)C(OC)C(OC)C1O)=C1OC(Oc2ccc(C=C(C)C(=O)NC3C(CO)OC(n4cnc5c(N(C)C)ncnc54)C3O)cc2O)C(O)C1O (stereo not drawn) [Factor C],MIC,Staph. aureus S13E,8 mg/L
same,MIC,Streptococcus 9960,> 128 mg/L
same,pKa,pKa,11.4
same,MIC,H. influ. R252,32 mg/L
same,Survivors/Total No. of Mice,[2]; 2.19 mg/kg S.C.,0/8
same,Survivors/Total No. of Mice,[2]; 4.375 mg/kg S.C.,4/8
same,Survivors/Total No. of Mice,[2]; 8.75 mg/kg S.C.,6/8
same,Survivors/Total No. of Mice,[2]; 17.5 mg/kg S.C.,8/8
same,Survivors/Total No. of Mice,[2]; 35 mg/kg S.C.,8/8
same,ED50,"[2]; Streptococcus pyogenes, C203, sc, 168 h, S.C., IP infection 243 LD50's",5.3 mg/kg
same,MIC,Streptococcus X66,64 mg/L
same,Survivors/Total No. of Mice,[3]; 4.378 mg/kg S.C.,0/8
same,Survivors/Total No. of Mice,[3]; 8.75 mg/kg S.C.,0/8
same,Survivors/Total No. of Mice,[3]; 17.5 mg/kg S.C.,0/8
same,Survivors/Total No. of Mice,[3]; 35 mg/kg S.C.,0/8
same,Survivors/Total No. of Mice,[3]; 70 mg/kg S.C.,0/8
same,ED50,"[3]; Streptococcus pneumoniae, sc, 168 h, S.C., IP infection 260 LD50's",> 70 mg/kg
same,inhibition of growth of pathogenic microorganisms,[1],"inhibit the growth of certain pathogenic microorganisms, particularly Gram positive bacteria"
same,MIC,Staph. epi. Epi2,64 mg/L
same,MIC,Streptococcus Park,8 mg/L
same,Survivors/Total No. of Mice,[4]; 2.19 mg/kg S.C.,0/8
same,Survivors/Total No. of Mice,[4]; 4.375 mg/kg S.C.,1/8
same,Survivors/Total No. of Mice,[4]; 8.75 mg/kg S.C.,3/8
same,Survivors/Total No. of Mice,[4]; 17.5 mg/kg S.C.,0/8
same,Survivors/Total No. of Mice,[4]; 35 mg/kg S.C.,5/8
same,ED50,"[4]; Staphylococcus aureus, 3055, sc, 168 h, S.C., IP infection 260 LD50's",26 mg/kg
same,MIC,Staph. epi. Epi1,128 mg/L
same,MIC,Staph. aureus X1.1,8 mg/L
same,MIC,Streptococcus C203,1 mg/L
same,MIC,Staph. aureus X400,8 mg/L
same,in vivo therapeutic activity against experimental bacterial infections,[5]; listed as A201C,has shown in vivo therapeutic activity against experimental bacterial infections
same,in vivo therapeutic activity against experimental bacterial infections,[5]; listed as Formula II,has shown in vivo therapeutic activity against experimental bacterial infections in mice
same,MIC,Staph. aureus V41; V41,> 128 mg/L
same,MIC,H. influ. HOLT,132 mg/L

# Reference: patent publication US4205164A, “Antibiotic A201C, A201D and A201E” (priority 1979, dated 1980)
